Test [1] has as its target polyhemoglobin-tyrosinase complex (bovine hemoglobin crosslinked with mushroom tyrosinase) (Bos taurus, UniProt P01966+P02070). Conditions: crosslink time 24 h; versus pure bovine hemoglobin in free form.
Test [2] concerns tyrosinase from mushroom, free (1020 U/3 ml). Briefly: Vmax and Km of free tyrosinase. It counts as biochemical. The following applies: substrate tyrosine. The source says: (§1) L-tyrosine (98% TLC), hemoglobin from bovine (lyophilized powder), hemoglobin assay kit, tyrosinase from mushroom (3400 U/mg manufacturer's stated activity) were purchased from Sigma-Aldrich (Oakville, Canada). Collodion was obtained from Fisher Scientific (Nepean, Canada). Glutaraldehyde (25%) was obtained from Polyscienes (Warrington, Pa.). Purified bovine hemoglobin was purchased from Biopure Corporation (Boston, Mass.). All other reagents were of analytical grade.
This is to characterize the enzyme kinetics of the preparation and comparing this encapsulated tyrosinse preparation to free tyrosinase.

The subject of test [3] is tyrosinase from mushroom, encapsulated (1020 U/3 ml). Briefly: Apparent Vmax and apparent Km of encapsulated tyrosinase. It counts as biochemical. The following applies: substrate tyrosine.
From the text: as §1
One gram hemoglobin and 200 mg […] was dissolved in 10 ml double distilled deionized water. Stir with a metal rod until everything is dissolved. Gravity filter the solution through a Waterman #42 filter into a Erlenmeyer flask. Take 2.5 ml of this 10 g/dl hemoglobin solution and was encapsulated within spherical, ultrathin, cellulose nitrate membrane. Without tyrosinase loaded microcapsules were administrated orally to control group. For tyrosinase loaded microencapsules, […] of 3400 U/mg tyrosinase was dissolved in 2.5 ml 10% hemoglobin solution, then followed the methods described above to immobilize tyrosinase in collodion membrane microcapsules. Microcapsules prepared as a 50% suspension for later feeding. […]
Next, the apparent Vmax and apparent Km value for encapsulated tyrosinase (1020 U/3 ml) were studied. The leakage of encapsulated tyrosinase is also measured.

For orientation: Km means the substrate concentration at which the rate is half of its maximum.

polyhemoglobin-tyrosinase complex (bovine hemoglobin crosslinked with mushroom tyrosinase), sequence (P01966 whole entry): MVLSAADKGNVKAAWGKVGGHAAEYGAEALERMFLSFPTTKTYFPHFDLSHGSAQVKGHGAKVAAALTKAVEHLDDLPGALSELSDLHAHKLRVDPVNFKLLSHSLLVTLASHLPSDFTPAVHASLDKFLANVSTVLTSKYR
polyhemoglobin-tyrosinase complex (bovine hemoglobin crosslinked with mushroom tyrosinase), sequence (P02070 whole entry): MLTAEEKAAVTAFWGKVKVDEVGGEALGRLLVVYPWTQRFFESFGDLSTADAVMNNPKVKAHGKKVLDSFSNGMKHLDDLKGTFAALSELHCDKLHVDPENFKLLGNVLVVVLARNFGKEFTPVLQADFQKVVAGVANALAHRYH

As to `O=O` [oxygen], in test [1], the “P50 (oxygen dissociation), difference from free hemoglobin” value is given as “no significant difference”.

As for `N[C@@H](Cc1ccc(O)cc1)C(=O)O` [tyrosine, L-tyrosine], in test [2], the Vmax is listed as 114.94 mg/dl · min. In addition, in test [3], the “Apparent Vmax” value was found to be 49.02 mg/dl · min and the Km is 465 µM.
